This note sets out measurements from patent US12404279B2, “Deubiquitinase inhibitors and methods of use thereof” (Molecure S.A., priority 2021, dated 2025).

This experiment has as its target full-length USP7 (Homo sapiens (Human), UniProt Q93009). The experiment in a line: Enzymatic assay to determine IC50 of USP7 inhibitors (Ubiquitin-Rhodamine 110 cleavage). The experiment is classed as biochemical. To be noted: for pIC50: 0.5 nM USP7, 0.5 μM Ubiquitin-Rhodamine 110, 45 min at 37° C.; for inhibition at 1 µM: read-out: percent value of inhibition of USP7 activity. The essentials: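 Enzyme: 0.5 nM full-length USP7 in HEPES pH 7.5 buffer with NaCl, DTT, BSA and Tween20, given 15 min at room temperature with DTT before compounds were added.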

The mark [1] stands for this setting: at 1 μM of the test compound, given where IC50 not determined yet.

pIC50: −log10 of the molar value. Where a name gives a salt, the structure may show the parent alone. Read-outs that look alike come from different tables or passages of the source. Some results are limits rather than exact numbers.

full-length USP7, sequence (Q93009 whole entry): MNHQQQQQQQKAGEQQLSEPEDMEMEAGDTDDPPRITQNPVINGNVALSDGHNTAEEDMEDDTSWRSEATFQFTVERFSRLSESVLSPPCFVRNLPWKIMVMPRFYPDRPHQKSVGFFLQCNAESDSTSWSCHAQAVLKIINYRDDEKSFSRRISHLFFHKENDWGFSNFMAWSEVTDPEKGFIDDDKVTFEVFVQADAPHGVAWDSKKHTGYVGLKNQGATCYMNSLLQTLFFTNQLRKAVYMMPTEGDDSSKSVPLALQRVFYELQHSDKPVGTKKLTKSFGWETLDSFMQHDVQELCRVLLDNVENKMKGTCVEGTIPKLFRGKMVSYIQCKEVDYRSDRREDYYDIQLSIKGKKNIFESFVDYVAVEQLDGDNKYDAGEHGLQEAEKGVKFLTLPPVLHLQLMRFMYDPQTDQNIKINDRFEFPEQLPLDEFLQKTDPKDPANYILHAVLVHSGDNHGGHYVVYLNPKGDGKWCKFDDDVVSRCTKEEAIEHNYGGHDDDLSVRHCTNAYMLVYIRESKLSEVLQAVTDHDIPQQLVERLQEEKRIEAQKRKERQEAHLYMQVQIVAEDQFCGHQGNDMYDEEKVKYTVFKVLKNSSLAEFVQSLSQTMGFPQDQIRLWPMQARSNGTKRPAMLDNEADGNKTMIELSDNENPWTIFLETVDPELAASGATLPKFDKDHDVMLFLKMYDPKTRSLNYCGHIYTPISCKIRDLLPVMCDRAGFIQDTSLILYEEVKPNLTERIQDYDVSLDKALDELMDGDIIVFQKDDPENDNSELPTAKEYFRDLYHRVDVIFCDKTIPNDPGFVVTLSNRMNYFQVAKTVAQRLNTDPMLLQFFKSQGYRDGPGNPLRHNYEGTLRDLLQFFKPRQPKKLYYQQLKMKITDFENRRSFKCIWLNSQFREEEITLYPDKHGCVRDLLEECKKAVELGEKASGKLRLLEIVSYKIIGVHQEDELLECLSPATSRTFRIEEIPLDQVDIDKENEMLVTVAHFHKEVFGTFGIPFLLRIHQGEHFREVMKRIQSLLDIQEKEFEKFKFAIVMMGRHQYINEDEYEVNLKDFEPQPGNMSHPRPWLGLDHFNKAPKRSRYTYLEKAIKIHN

Turning to `Cc1cc(Cl)nc(-c2ccnc3cc(CN4C(=O)C5C(C4=O)C5(C)C)sc23)c1NC1CC2(CNC2)C1` (centres unmarked) [Example 131, 3-((7-(3-((2-azaspiro[3.3]heptan-6-yl)amino)-6-chloro-4-methylpyridin-2-yl)thieno[3,2-b]pyridin-2-yl)methyl)-6,6-dimethyl-3-azabicyclo[3.1.0]hexane-2,4-dione hydrobromide], the pIC50 (as a rule, −log10 of the IC50, conventionally taken in molar units) is > 6.30.

Regarding `Cc1cc(C#N)nc(-c2ccnc3cc(CN4C(=O)C5C(C4=O)C5(C)C)sc23)c1C(=O)N(C)CCN(C)C` (centres unmarked) [Example 42, 6-cyano-2-(2-((6,6-dimethyl-2,4-dioxo-3-azabicyclo[3.1.0]hexan-3-yl)methyl)thieno[3,2-b]pyridin-7-yl)-N-(2-(dimethylamino)ethyl)-N,4-dimethylnicotinamide], the inhibition (as a rule, the change of the read-out against control, counted positive when it falls) at 1 µM under setting [1] is < 20%. Take `Cc1nc(C#N)cc(-c2ccnc3cc(CN4C(=O)C5C(C4=O)C5(C)C)sc23)c1C(=O)N1CCNC[C@@H]1C` (stereo partly drawn) [Example 5, 4-(2-((6,6-dimethyl-2,4-dioxo-3-azabicyclo[3.1.0]hexan-3-yl)methyl)thieno[3,2-b]pyridin-7-yl)-6-methyl-5-((S)-2-methylpiperazine-1-carbonyl)picolinonitrile 2,2,2-trifluoroacetate]: the negative-log IC50 (pIC50) is > 6.30. The same measure, in the same setting: the same measure for `Cc1cc(C(F)(F)F)nc(-c2ccnc3cc(CN4C(=O)N(C)C5(CC5)C4=O)sc23)c1NC1CCNC1` (racemic) [Example 145, 4-methyl-6-((7-(4-methyl-3-(pyrrolidin-3-ylamino)-6-(trifluoromethyl)pyridin-2-yl)thieno[3,2-b]pyridin-2-yl)methyl)-4,6-diazaspiro[2.4]heptane-5,7-dione dihydrochloride]: > 6.30; for `Cc1cc(C(F)(F)F)nc(-c2ccnc3cc(CN4C(=O)C5C(C4=O)C5(C)C)sc23)c1C(=O)N1CC[C@H](NC(=O)[C@H](C)N)C1` (stereo partly drawn) [Example 110, (2S)-2-amino-N-((3S)-1-(2-(2-((6,6-dimethyl-2,4-dioxo-3-azabicyclo[3.1.0]hexan-3-yl)methyl)thieno[3,2-b]pyridin-7-yl)-4-methyl-6-(trifluoromethyl)nicotinoyl)pyrrolidin-3-yl)propanamide dihydrochloride]: 6.00 to 6.30.

In the case of `Cc1cc(Cl)cc(-c2ccnc3cc(CC4NCCNC4=O)sc23)c1O[C@H]1CCCNC1` (stereo partly drawn) [Example 178, 3-((7-(5-chloro-3-methyl-2-(((S)-piperidin-3-yl)oxy)phenyl)thieno[3,2-b]pyridin-2-yl)methyl)piperazin-2-one hydrochloride], the negative-log IC50 (pIC50) is > 6.30. As to `CC1(C)C2C(=O)N(Cc3cc4nccc(-c5cc(F)cnc5O[C@H]5CCNC5)c4s3)C(=O)C21` (stereo partly drawn) [Example 157, 3-((7-(5-fluoro-2-(((S)-pyrrolidin-3-yl)oxy)pyridin-3-yl)thieno[3,2-b]pyridin-2-yl)methyl)-6,6-dimethyl-3-azabicyclo[3.1.0]hexane-2,4-dione dihydrochloride], under setting [1], the inhibition at 1 µM was < 20%. For the molecule `Cc1nc(C(F)(F)F)cc(-c2ccnc3cc(CN4C(=O)C5C(C4=O)C5(C)C)sc23)c1CN1CCNCC1` (centres unmarked) [Example 102, 6,6-dimethyl-3-((7-(2-methyl-3-(piperazin-1-ylmethyl)-6-(trifluoromethyl)pyridin-4-yl)thieno[3,2-b]pyridin-2-yl)methyl)-3-azabicyclo[3.1.0]hexane-2,4-dione 2,2,2-trifluoroacetate], the pIC50 is 5.00 to 6.00. The same measure, in the same setting: the same measure for `CCN[C@H]1CCN(C(=O)c2c(C)cc(C(F)(F)F)nc2-c2ccnc3cc(CN4C(=O)C5C(C4=O)C5(C)C)sc23)C1` (stereo partly drawn) [Example 73, 3-((7-(3-((S)-3-(ethylamino)pyrrolidine-1-carbonyl)-4-methyl-6-(trifluoromethyl)pyridin-2-yl)thieno[3,2-b]pyridin-2-yl)methyl)-6,6-dimethyl-3-azabicyclo[3.1.0]hexane-2,4-dione dihydrochloride]: > 6.30. For the molecule `Cc1nc(C(F)(F)F)cc(-c2ccnc3cc(CN4C(=O)C5C(C4=O)C5(C)C)sc23)c1NC(=O)CN1CC(F)(F)C1` (centres unmarked) [Example 32, 2-(3,3-difluoroazetidin-1-yl)-N-(4-(2-((6,6-dimethyl-2,4-dioxo-3-azabicyclo[3.1.0]hexan-3-yl)methyl)thieno[3,2-b]pyridin-7-yl)-2-methyl-6-(trifluoromethyl)pyridin-3-yl)acetamide 2,2,2-trifluoroacetate], the inhibition at 1 µM is < 20%. Take `Cc1nc(C(F)(F)F)cc(-c2ccnc3cc(CN4C(=O)C5C(C4=O)C5(C)C)sc23)c1NC(=O)C1CCN(C(=O)C(F)(F)F)C1` (racemic) [Example 65, N-(4-(2-((6,6-dimethyl-2,4-dioxo-3-azabicyclo[3.1.0]hexan-3-yl)methyl)thieno[3,2-b]pyridin-7-yl)-2-methyl-6-(trifluoromethyl)pyridin-3-yl)-1-(2,2,2-trifluoroacetyl)pyrrolidine-3-carboxamide 2,2,2-trifluoroacetate]: the negative logarithm of the IC50 (pIC50) was < 5.00. Turning to `Cc1nc(C#N)cc(-c2ccnc3cc(CN4C(=O)C5C(C4=O)C5(C)C)sc23)c1C(=O)NC1CNC1` (centres unmarked) [Example 16, N-(azetidin-3-yl)-6-cyano-4-(2-((6,6-dimethyl-2,4-dioxo-3-azabicyclo[3.1.0]hexan-3-yl)methyl)thieno[3,2-b]pyridin-7-yl)-2-methylnicotinamide hydrochloride], the inhibition at 1 µM under setting [1] lay within 20 to 49%. With `Cc1cc(C(F)(F)F)nc(-c2ccnc3cc(CN4C(=O)C5C(C4=O)C5(C)C)sc23)c1CC1CNCCO1` (racemic) [Example 92, 6,6-dimethyl-3-((7-(4-methyl-3-(morpholin-2-ylmethyl)-6-(trifluoromethyl)pyridin-2-yl)thieno[3,2-b]pyridin-2-yl)methyl)-3-azabicyclo[3.1.0]hexane-2,4-dione 2,2,2-trifluoroacetate], the negative logarithm of the IC50 (pIC50) is > 6.30. For `Cc1cc(C(F)(F)F)nc(-c2ccnc3cc(CN4C(=O)C5C(C4=O)C5(C)C)sc23)c1CN1CCOCC1=O` (centres unmarked) [Example 38, 6,6-dimethyl-3-((7-(4-methyl-3-((3-oxomorpholino)methyl)-6-(trifluoromethyl)pyridin-2-yl)thieno[3,2-b]pyridin-2-yl)methyl)-3-azabicyclo[3.1.0]hexane-2,4-dione hydrochloride], under setting [1], the inhibition at 1 µM is < 20%. The molecule `Cc1nc(C#N)cc(-c2ccnc3cc(CN4C(=O)C5C(C4=O)C5(C)C)sc23)c1C(=O)N1CC[C@@H](O)C1` (stereo partly drawn) [Example 12, 4-(2-((6,6-dimethyl-2,4-dioxo-3-azabicyclo[3.1.0]hexan-3-yl)methyl)thieno[3,2-b]pyridin-7-yl)-5-((R)-3-hydroxypyrrolidine-1-carbonyl)-6-methylpicolinonitrile 2,2,2-trifluoroacetate] gave a negative-log IC50 (pIC50) of 6.00 to 6.30. Still for that read-out and setting: the result for `Cc1cc(C(F)(F)F)nc(-c2ccnc3cc(CN4C(=O)C5C(C4=O)C5(C)C)sc23)c1C(=O)N1CCOCC1` (centres unmarked) [Example 84, 6,6-dimethyl-3-((7-(4-methyl-3-(morpholine-4-carbonyl)-6-(trifluoromethyl)pyridin-2-yl)thieno[3,2-b]pyridin-2-yl)methyl)-3-azabicyclo[3.1.0]hexane-2,4-dione hydrochloride] reads 6.00 to 6.30; that for `Cc1c(Cl)cc(-c2ccnc3cc(CN4C(=O)C5C(C4=O)C5(C)C)sc23)n1C[C@@H]1CNCCO1` (stereo partly drawn) [Example 162, 3-((7-(4-chloro-5-methyl-1-(((S)-morpholin-2-yl)methyl)-1H-pyrrol-2-yl)thieno[3,2-b]pyridin-2-yl)methyl)-6,6-dimethyl-3-azabicyclo[3.1.0]hexane-2,4-dione hydrochloride], > 6.30.
